Values quoted from earlier work, collected in PMC10088252.
Like-named read-outs stand apart in the source and are kept apart here.

What was measured:
[1] = system: MET exon 14-mutated NSCLC; set-up: method as in PMID 35720834; conditions: real-world; cited from earlier work
[2] = system: MET exon 14-mutated or MET-amplified NSCLC; set-up: method as in PMID 32877583; conditions: cited from earlier work
[3] = system: MET-positive solid tumors; set-up: method as in PMID 31778267; conditions: all patients (76); cited from earlier work
[4] = system: MET- or ROS1-positive NSCLC; set-up: method as in PMID 31584608; conditions: cited from earlier work
[5] = system: NSCLC harboring MET exon 14 skipping mutation; set-up: method as in PMID 34166627; conditions: cited from earlier work
[6] = system: advanced solid tumors with c-MET H-score of ≥ 150; set-up: method as in PMID 30285518; conditions: 16 patients with NSCLC; cited from earlier work
[7] = of 13 patients with brain metastases at baseline

**Q.** Which ORR [1] does the source give for `CNC(=O)c1ccc(-c2cnc3ncc(Cc4ccc5ncccc5c4)n3n2)cc1F` [capmatinib] here?
**A.** The ORR was 58%.

**Q.** What about the “median PFS” value [1] of the same molecule?
**A.** Its value is 9.5 months.

**Q.** What about the ORR ([2]; MET amplification, gene copy number < 10) of the same molecule?
**A.** The ORR was 7–12%.

**Q.** What about the ORR ([2]; MET amplification, gene copy number ≥ 10, previously treated) of the same molecule?
**A.** Its ORR is 29%.

**Q.** What about the ORR ([2]; MET amplification, gene copy number ≥ 10, treatment-naïve) of the same molecule?
**A.** Its ORR is 40%.

**Q.** What about the TEAE nausea [2] of the same molecule?
**A.** Its TEAE nausea is 45%.

**Q.** What about the TEAE peripheral edema [2] of the same molecule?
**A.** The TEAE peripheral edema was 51%.

**Q.** What about the “patients who discontinued treatment due to TRAEs” value [2] of the same molecule?
**A.** Its value is 11%.

**Q.** And the “patients achieving intracranial response” value [2, 7]?
**A.** The value was “Seven”.

**Q.** What about the “patients with intracranial CR” value [2, 7] of the same molecule?
**A.** The value was “four”.

**Q.** What about the ORR ([2]; patients harboring MET exon 14 skipping mutation) of the same molecule?
**A.** Its ORR is 41%.

**Q.** What about the ORR ([2]; previously treated MET exon 14-mutated NSCLC) of the same molecule?
**A.** The ORR was 41%.

**Q.** And the ORR ([2]; treatment-naïve MET exon 14-mutated NSCLC)?
**A.** The ORR was 68%.

**Q.** And the DCR [3]?
**A.** The DCR was 26%.

**Q.** For `C[C@@H](Oc1cc(-c2cnn(C3CCNCC3)c2)cnc1N)c1c(Cl)ccc(F)c1Cl` [crizotinib], which ORR ([4]; MET copy number ≥ 6) is on record?
**A.** The ORR was 16%.

**Q.** What about the ORR ([4]; MET mutation) of the same molecule?
**A.** The ORR was 10.7%.

**Q.** Which DCR ([5]; 15 MET exon 14-mutated NSCLC patients with brain metastases) does the source give for `C[C@@H](c1ccc2nccn2c1)n1nnc2ncc(-c3cnn(C)c3)nc21` [savolitinib] here?
**A.** The DCR was 93.3%.

**Q.** What about the “grade ≥ 3 TRAE increased ALT” value [5] of the same molecule?
**A.** Its value is 10%.

**Q.** And the “grade ≥ 3 TRAE increased AST” value [5]?
**A.** The value was 13%.

**Q.** What about the “grade ≥ 3 TRAE peripheral oedema” value [5] of the same molecule?
**A.** Its value is 9%.

**Q.** What about the “incidence of grade ≥ 3 TRAEs” value [5] of the same molecule?
**A.** Its value is 46%.

**Q.** What about the ORR ([5]; patients harboring MET exon 14 skipping mutation, FAS) of the same molecule?
**A.** Its ORR is 42.9%.

B1: telisotuzumab vedotin (conjugate, chains of the INN, looked up)
VH: QVQLVQSGAEVKKPGASVKVSCKASGYIFTAYTMHWVRQAPGQGLEWMGWIKPNNGLANYAQKFQGRVTMTRDTSISTAYMELSRLRSDDTAVYYCARSEITTEFDYWGQGTLVTVSS
VL: DIVMTQSPDSLAVSLGERATINCKSSESVDSYANSFLHWYQQKPGQPPKLLIYRASTRESGVPDRFSGSGSGTDFTLTISSLQAEDVAVYYCQQSKEDPLTFGGGTKVEIK
modifications: vedotin (MMAE) payload
**Q.** For B1, which DCR [6] is on record?
**A.** The DCR was 56%.
